What was measured:
[1] = tested on: flank organ of mature male Syrian golden hamsters; assay: Topical comparison in mature male hamsters, right flank organ treated, left flank organ vehicle (Tables II, III); type: in vivo; conditions: n=7; for Flank organ Diameter, RFO / Flank organ Weight, RFO / Flank organ Development, RFO (median score): treated right flank organ; for Flank organ Diameter, RFO / Flank organ Weight, RFO: mean; for Flank organ Development, RFO (median score): scale 0 to 4 (0 barely visible, 4 as in mature male); for Flank Organ (Mean Score) Area / Flank Organ (Mean Score) Elevation / Flank Organ (Mean Score) Hair Growth / Flank Organ (Mean Score) Hair Pigmentation / Flank Organ (Mean Score) Skin Pigmentation: RFO, scale 0 to 4
From the text: Each flank organ of mature male Syrian golden hamsters having a mean initial body weight of 105 g. was medicated topically with the compound of Formula I dissolved in ethanol (5 microliters) for twenty-one days. Flank organ hair was clipped three times per week to facilitate application. On the day following the last medication the hamsters were killed with an overdose of sodium pentobarbital. The flank organ parameters and the weights of seminal vesicles, adrenals and thymus glands were determined. Flank organ diameter was measured parallel to the breadth of the hamster with vernier calipers. Wet weights were obtained on flank organs excised around the periphery of the pigmented area. The topical activity of the compound of Formula I was also compared with that of 17β-hydroxy-17α-propylandrost-4-en-3-one, an antiandrogen, and hydrocortisone. In this experiment the right flank organ was treated with the test compound while vehicle-treated left flank organ served as control. […] In addition, the individual characteristics of the flank organ, elevation (thickness relative to adjacent skin), area, hair pigment, skin pigment and hair growth were all scored separately on a scale of 0 to 4.

[2] = tested on: hair growth on backs of male adrenalectomized Sprague-Dawley rats; assay: Reduction in hair growth in male adrenalectomized rats, topical (Table VII); type: in vivo; conditions: 0.1% solution topical, n=12
From the text: Hair was clipped from the backs of male Sprague-Dawley rats, having a mean body weight of 300 g., three weeks after adrenalectomy. The clipped area (4 cm.×4 cm.) was medicated with approximately 500 microliters of 0.1% solution of the compound of Formula I, or hydrocortisone or 500 microliters of ethanol alone for a two-week pretreatment period. The clipped area was then depilated and the medication with either solution or ethanol alone was continued for 4 weeks. The density of hair growth was scored visually at weekly intervals and at termination of the experiment on a scale of 0 to 4 (0, no hair growth; 4, complete hair regrowth). Skinfold thickness was also measured using a micrometer at the end of the experiment, which was conducted blind.

[3] = tested on: castrated immature male Syrian golden hamsters; assay: Systemic antiandrogenic and glucocorticoid activity, subcutaneous, with testosterone propionate (Table IV); type: in vivo; conditions: testosterone propionate 0.4 mg/kg/day alone for 14 days (androgen-treated control); mean, n=8
Protocol: A solution of the compound of Formula I in cottonseed oil was administered subcutaneously at 1 ml./kg. to castrated immature male Syrian golden hamsters having a mean initial body weight of 79 g. for 14 consecutive days concurrently with testosterone propionate. On the day following the last medication the hamsters were killed, the flank organ parameters were determined and the weights of seminal vesicles, adrenals and thymus glands were obtained.

[4] = target: T1, hamster flank organ cytosol receptor (Mesocricetus auratus, UniProt A0A1U7QL32); assay: Binding competition with 3H-dihydrotestosterone in hamster flank organ cytosol in vitro (Table VI); set-up: species or system Syrian golden hamsters; conditions: 3H-DHT 2 nM, two hours, no antagonist 13.96
T1 construct: The homogenate was centrifuged (120,000×g for 45 min.) and the cytosol was frozen and stored at -70° C; from tissue; host or cells: flank organ cytosol of castrated male Syrian golden hamsters
T1 sequence (A0A1U7QL32 1-900): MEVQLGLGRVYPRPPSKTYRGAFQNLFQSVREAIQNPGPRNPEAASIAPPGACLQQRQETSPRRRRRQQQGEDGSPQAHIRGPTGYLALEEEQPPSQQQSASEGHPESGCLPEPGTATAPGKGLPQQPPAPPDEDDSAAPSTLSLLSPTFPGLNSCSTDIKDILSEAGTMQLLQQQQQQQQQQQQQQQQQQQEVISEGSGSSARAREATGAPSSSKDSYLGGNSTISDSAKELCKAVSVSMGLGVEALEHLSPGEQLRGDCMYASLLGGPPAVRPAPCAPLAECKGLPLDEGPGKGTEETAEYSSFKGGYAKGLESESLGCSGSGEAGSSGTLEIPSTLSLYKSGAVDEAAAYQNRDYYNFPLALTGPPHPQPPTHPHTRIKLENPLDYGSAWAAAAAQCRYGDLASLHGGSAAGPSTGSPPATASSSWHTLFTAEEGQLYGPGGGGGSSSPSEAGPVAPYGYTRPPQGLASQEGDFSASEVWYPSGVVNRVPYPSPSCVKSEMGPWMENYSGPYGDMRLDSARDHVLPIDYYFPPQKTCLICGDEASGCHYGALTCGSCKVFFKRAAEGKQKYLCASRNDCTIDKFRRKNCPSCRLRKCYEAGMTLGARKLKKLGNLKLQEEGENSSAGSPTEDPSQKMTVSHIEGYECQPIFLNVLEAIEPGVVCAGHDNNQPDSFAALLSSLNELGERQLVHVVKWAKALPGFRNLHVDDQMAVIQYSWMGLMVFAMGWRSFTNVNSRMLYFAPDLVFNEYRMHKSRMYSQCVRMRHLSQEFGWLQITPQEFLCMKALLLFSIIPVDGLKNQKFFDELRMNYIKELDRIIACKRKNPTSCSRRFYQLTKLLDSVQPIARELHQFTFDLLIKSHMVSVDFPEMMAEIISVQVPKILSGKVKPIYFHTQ
Protocol: The flank organs of twelve mature male Syrian golden hamsters each weighing from 120 to 140 g. and having been castrated 16-18 hours earlier were excised, dissected under the microscope to remove the dermis and the muscle layers and homogenized in buffer (1.5 volumes of 50 mM Tris, 0.5 mM mercaptoethanol and 0.1 mM ethylenediamine tetracetate, pH 7.4). The homogenate was centrifuged (120,000×g for 45 min.) and the cytosol was frozen and stored at -70° C. Six of the cytosol samples were thawed at room temperature, pooled and used for evaluation of in vitro binding.

[5] = after depilation, median score, scale 0 to 4

Row | Compound | Flank organ Diameter, RFO ([1]; 5 μg/RFO for 21 days) | Flank organ Weight, RFO ([1]; 5 μg/RFO for 21 days) | Flank organ Development, RFO (median score) ([1]; 5 μg/RFO for 21 days) | Flank organ Diameter, RFO ([1]; 50 μg/RFO for 21 days) | Flank organ Weight, RFO ([1]; 50 μg/RFO for 21 days) | Flank organ Development, RFO (median score) ([1]; 50 μg/RFO for 21 days) | Flank Organ (Mean Score) Area ([1]; 5 μg/flank organ for 21 days) | Flank Organ (Mean Score) Elevation ([1]; 5 μg/flank organ for 21 days) | Flank Organ (Mean Score) Hair Growth ([1]; 5 μg/flank organ for 21 days) | Flank Organ (Mean Score) Hair Pigmentation ([1]; 5 μg/flank organ for 21 days) | Flank Organ (Mean Score) Skin Pigmentation ([1]; 5 μg/flank organ for 21 days) | Flank Organ (Mean Score) Area ([1]; 50 μg/flank organ for 21 days) | Flank Organ (Mean Score) Elevation ([1]; 50 μg/flank organ for 21 days) | Flank Organ (Mean Score) Hair Growth ([1]; 50 μg/flank organ for 21 days) | Flank Organ (Mean Score) Hair Pigmentation ([1]; 50 μg/flank organ for 21 days) | Flank Organ (Mean Score) Skin Pigmentation ([1]; 50 μg/flank organ for 21 days) | further results
1 | CCC[C@]1(O)CC[C@H]2[C@@H]3CCC4=CC(=O)CC[C@]4(C)[C@H]3CC[C@@]21C [17β-Hydroxy-17α-propylandrost-4-en-3-one, 17β-hydroxy-17α-propylandrost-4-en-3-one] | 4.9 mm | 33.8 mg | 3 | 3.9 mm | 21.4 mg | 2 | 3.1 | 2.6 | 3.1 | 3.3 | 4.0 | 1.6 | 1.4 | 2.3 | 2.6 | 2.7 | 
2 | C[C@]12CCC(=O)C=C1CC[C@@H]1[C@@H]2[C@@H](O)C[C@@]2(C)[C@H]1CC[C@]2(O)C(=O)CO [Hydrocortisone, hydrocortisone] | 5.7 mm | 38.5 mg | 4 | 5.7 mm | 39.1 mg | 4 | 3.7 | 3.7 | 1.9 | 3.7 | 3.9 | 4.0 | 3.5 | 1.3 | 3.0 | 3.4 | Hair Growth Score, Treatment week 1 [2, 5]: 0; Hair Growth Score, Treatment week 2 [2, 5]: 0; Hair Growth Score, Treatment week 3 [2, 5]: 1; Hair Growth Score, Treatment week 4 [2, 5]: 2; Skinfold Thickness, Treatment week 4 ([2]; mean, vehicle 2.51): 2.11 mm; Hair Growth Score, Pretreatment week 1 ([2]; median score, scale 0 to 4 (0 no hair growth, 4 complete regrowth)): 2; Hair Growth Score, Pretreatment week 2 ([2]; median score, scale 0 to 4): 3
3 | CCC(=O)O[C@H]1CC[C@H]2[C@@H]3CCC4=CC(=O)CC[C@]4(C)[C@H]3CC[C@]12C [Testosterone Propionate, testosterone propionate, reference compound] |  |  |  |  |  |  |  |  |  |  |  |  |  |  |  |  | Final Body Weight [3]: 106; Flank Organ Diameter [3]: 4.3 mm; Flank Organ Wet Weight [3]: 22.8 mg; Organ Weights: Adrenals [3]: 18.2 mg; Organ Weights: Seminal Vesicles [3]: 157 mg; Organ Weights: Thymus [3]: 58 mg
4 | C[C@]12CCC(=O)C[C@@H]1CC[C@@H]1[C@@H]2CC[C@]2(C)[C@@H](O)CC[C@@H]12 [DHT, Dihydrotestosterone, reference compound] |  |  |  |  |  |  |  |  |  |  |  |  |  |  |  |  | % Bound (Mean ± SE) of 3H-dihydrotestosterone ([4]; unlabelled antagonist 20 nM, molar ratio 10): 7.95 ± .41%; % Bound (Mean ± SE) of 3H-dihydrotestosterone ([4]; unlabelled antagonist 200 nM, molar ratio 100): 4.22 ± .001%; % Bound (Mean ± SE) of 3H-dihydrotestosterone ([4]; unlabelled antagonist 2000 nM, molar ratio 1000): 4.00 ± .22%

Source: patent US4269831A, “Topical dermatological method of use of an androstenopyrazole” (priority 1979, dated 1981)
